These results are taken from patent US4908352A, “Urotensin peptides” (The Salk Institute for Biological Studies, priority 1987, dated 1990).

In assay [1] the test system is Perfused Hind Limb of the Rat. Nature of the assay: Isolated rat hind limb assay (UI activity). The source says:
(§1) The urotensin peptide from Example II is examined for effects on the secretion of ACTH and β-endorphin in vitro and also examined in vivo. A low potency (4%) to stimulate the secretion of ACTH and β-endorphinby cultured rat pituitary cells is observed. The peptide also stimulates ACTH and B-END-LI secretion in vivo in several rat preparations. UI activity of the peptide is evident in the isolated rat hind limb assay, Lederis, K. et al. "Effects and Assay of Urotensin I on the Perfused Hind Limb of the Rat", Gen. Comp. Endocrinol., 24:10-16, 1974. In vivo hypotensive activity of extracted peptides is measured in anaesthetized rats, Lederis, K. and Medakovic, M. "Pharmacological Observations on the Hypotensive Actin of Extracts of Teleost Fish Urophyses (Urotensin I) in the Rat", Br. J. Pharmacol. 51:315-324, 1974, and in anaesthetized dogs, MacCannell and Lederis, "Dilatation of the Mesenteric Vascular Bed of the Dog Produced by a Peptide, Urotensin I", J. Pharm. Exp. Ther. 203:38-46, 1977.

Assay [2] in a line: ACTH and β-endorphin secretion, general procedure of Example III (in vitro / in vivo not separated).
From the text: as §1

A short description of assay [3]: ACTH and B-END-LI secretion in vivo in several rat preparations.
From the text: as §1

Assay [4] relates to isolated mesenteric artery strips of the rat. In words: Isolated mesenteric artery strips of the rat. An excerpt: The synthetic peptides described above with respect to Example I are generally equipotent with the extracted and purified peptide, as tested in the anaesthetized dog in vivo and when tested in isolated mesenteric artery strips of the rat according to Muramatsu, I., Miura, A., Fujiwara, M. and Lederis, K., Gen. Comp. Endocrinol. 45:446-452, 1981.

The next assay concerns mesenteric vascular bed. Nature of the assay: In vivo hypotensive activity / mesenteric vasodilatation in anaesthetized dogs. More on the design: species or system dog.
From the text: as §1
In the pentobarbital-anaesthetized dog, the threshold dose of Maggy UI for mesenteric vasodilatation, when given close arterially into the cephalic mesenteric A, is between 0.001 and 0.01 μg.

Assay [5] can be described thus: In vivo hypotensive activity in anaesthetized rats. Conditions: anaesthetized rat.
From the text: as §1

The nature of assay [6]: Vasodilatory-hypotensive activity, general procedure of Example III (species not separated). Format: in vivo. To be noted: for mesenteric blood flow / systemic blood pressure / vasodilatory-hypotensive activity: general procedure of Example III; for vasodilatory-hypotensive activity: mammalian.
From the text: as §1

The subject of the next assay is teleost fish pituitaries. Nature of the assay: Secretion of ACTH by teleost fish pituitaries.
Assay [7] concerns cultured rat pituitary cells. Nature of the assay: Secretion of ACTH and β-endorphin by cultured rat pituitary cells. Format: cell-based. To be noted: relative potency, reference not named.
From the text: as §1

The mark [8] stands for this setting: pentobarbital-anaesthetized dog, doses of 0.1-0.5 μg.

On to “H-SEEPPMSIDLTFHMLRNMIHRAKMEGEREQALINRNLLDEV-NH2 [Maggy UI]”, for which the UI activity entry in assay [1] is reported as “evident”. The “ACTH and β-endorphin activities” value in assay [2] (in vitro and in vivo (summary statement)) was “stimulate ACTH and β-endorphin activities in vitro and in vivo”. Besides, the “ACTH and B-END-LI secretion in vivo” value in [3] was “stimulates”. The “activity compared with the extracted and purified peptide” value (in assay [4]; in the assay on mesenteric vascular bed (anaesthetized dog in vivo)) was “not significantly different” in each case. For the same substance, the results for the blood pressure entry (in the assay on mesenteric vascular bed (anaesthetized dog); in assay [5]; in [6] (summary statement)) were “modest but sustained depression of the blood pressure”, “more marked fall in blood pressure” and “substantially lower blood pressure for an extended time period”, respectively. For the same substance, in the assay on mesenteric vascular bed (anaesthetized dog), the “dilatation of vascular beds other than the mesenteric” value is “does not dilate other vascular beds”. In the assay on mesenteric vascular bed (setting [8]), the “accompanying change in blood pressure (decrease)” value is given as “about 10%”. In the assay on mesenteric vascular bed (setting [8]), the mesenteric flow entry is on record as “significant increase”. Also, the “potency in stimulating the secretion of ACTH compared with amunine” value with teleost fish pituitaries is on record as “somewhat more potent than amunine”. Besides, the “potency to stimulate the secretion of ACTH and β-endorphin” value in assay [7] was 4%.

“H-SEEPPMSIDLTFHMLRNMIHRAKMEGER-NH2 [Example V, H-Ser-Glu-Glu-Pro-Pro-Met-Ser-Ile-Asp-Leu-Thr-Phe-His-Met-Leu-Arg-Asn-Met- Ile-His-Arg-Ala-Lys-Met-Glu-Gly-Glu-Arg-NH2]”: in [6], the mesenteric blood flow entry is recorded as “increasing”, the systemic blood pressure entry is “lowering” and the vasodilatory-hypotensive activity result is listed as “significant”.

“Ac-SEEPPMSIDLTFHMLRNMIHRAKMEGEREQALINRNLLDEV-NH2 [IV]”: in assay [2] (general procedure of Example III), the “secretion of ACTH and β-END-LI” value is “stimulates”. In assay [6], the mesenteric blood flow result is on record as “very significant increasing”, the systemic blood pressure entry was “lowering” and the vasodilatory-hypotensive activity result was “causes vasodilatory-hypotensive activity”.
